Test system: Klebsiella pneumoniae (KPN) isolates
Test: MIC of compounds alone and combined with antibacterials, broth microdilution (CLSI)
Assay type: cell-based
Method in brief: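 Antibacterial MICs in combination were determined at every compound concentration tested, alongside compound MICs alone. Bacteria grew in cation-adjusted Mueller-Hinton broth starting from 5.10^5 CFU/mL, incubated at 35° C for 16-20 h, and endpoints were the lowest concentrations with no visible growth.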

Structure (SMILES): C=CC1=C(C(=O)O)N2C(=O)[C@@H](NC(=O)/C(=N\OCC(=O)O)c3csc(N)n3)[C@H]2SC1 [FIX, Cefixime]
- MIC ATB in combination (KPN UFR53, AF2 @ 8 μg/mL): <0.25 µg/mL
- MIC ATB in combination (KPN UFR53, AF3 @ 8 μg/mL): <=0.25 μg/mL
- MIC ATB in combination (KPN UFR53, CLA @ 4 μg/mL): 128 µg/mL
- MIC ATB in combination (KPN UFR65, AF2 @ 8 μg/mL): 0.5 µg/mL
- MIC ATB in combination (KPN UFR65, AF3 @ 8 μg/mL): <=0.25 μg/mL
- MIC ATB in combination (KPN UFR65, CLA @ 4 μg/mL): 128 µg/mL
- MIC ATB in combination (KPN UFR66, AF2 @ 8 μg/mL): 4 µg/mL
- MIC ATB in combination (KPN UFR66, AF3 @ 8 μg/mL): 4 µg/mL
- MIC ATB in combination (KPN UFR66, CLA @ 4 μg/mL): 64 µg/mL
- MIC ATB in combination (KPN UFR67, AF2 @ 8 μg/mL): 4 µg/mL
- MIC ATB in combination (KPN UFR67, AF3 @ 8 μg/mL): 4 µg/mL
- MIC ATB in combination (KPN UFR67, CLA @ 4 μg/mL): 128 µg/mL
- MIC ATB in combination (KPN UFR68, AF2 @ 8 μg/mL): 0.5 µg/mL
- MIC ATB in combination (KPN UFR68, AF3 @ 8 μg/mL): 0.5 µg/mL
- MIC ATB in combination (KPN UFR68, CLA @ 4 μg/mL): 64 µg/mL
- MIC ATB in combination (KPN UFR76, AF2 @ 8 μg/mL): >128 µg/mL
- MIC ATB in combination (KPN UFR76, AF3 @ 8 μg/mL): >128 µg/mL
- MIC ATB in combination (KPN UFR76, CLA @ 4 μg/mL): >128 µg/mL
- MIC ATB in combination (KPN UFR77, AF2 @ 8 μg/mL): 0.5 µg/mL
- MIC ATB in combination (KPN UFR77, AF3 @ 8 μg/mL): <=0.25 μg/mL
- MIC ATB in combination (KPN UFR77, CLA @ 4 μg/mL): 128 µg/mL
- MIC ATB in combination (KPN UFR78, AF2 @ 8 μg/mL): >128 µg/mL
- MIC ATB in combination (KPN UFR78, AF3 @ 8 μg/mL): >128 µg/mL
- MIC ATB in combination (KPN UFR78, CLA @ 4 μg/mL): >128 µg/mL
- MIC ATB in combination (KPN UFR79, AF2 @ 8 μg/mL): 2 µg/mL
- MIC ATB in combination (KPN UFR79, AF3 @ 8 μg/mL): 2 µg/mL
- MIC ATB in combination (KPN UFR79, CLA @ 4 μg/mL): >128 µg/mL
- MIC ATB in combination (KPN UFR80, AF2 @ 8 μg/mL): <=0.25 μg/mL
- MIC ATB in combination (KPN UFR80, AF3 @ 8 μg/mL): <=0.25 μg/mL
- MIC ATB in combination (KPN UFR80, CLA @ 4 μg/mL): 0.5 µg/mL
- MIC ATB in combination (KPN UFR81, AF2 @ 8 μg/mL): 64 µg/mL
- MIC ATB in combination (KPN UFR81, AF3 @ 8 μg/mL): 32 µg/mL
- MIC ATB in combination (KPN UFR81, CLA @ 4 μg/mL): >128 µg/mL
- MIC ATB in combination (KPN UFR215, AF2 @ 8 μg/mL): <=0.25 μg/mL
- MIC ATB in combination (KPN UFR215, AF3 @ 8 μg/mL): <=0.25 μg/mL
- MIC ATB in combination (KPN UFR215, CLA @ 4 μg/mL): 1 µg/mL
- MIC ATB in combination (KPN UFR216, AF2 @ 8 μg/mL): <0.25 µg/mL
- MIC ATB in combination (KPN UFR216, AF3 @ 8 μg/mL): <0.25 µg/mL
- MIC ATB in combination (KPN UFR216, CLA @ 4 μg/mL): <=0.25 μg/mL
- MIC ATB in combination (KPN UFR217, AF2 @ 8 μg/mL): <0.25 µg/mL
- MIC ATB in combination (KPN UFR217, AF3 @ 8 μg/mL): <0.25 µg/mL
- MIC ATB in combination (KPN UFR217, CLA @ 4 μg/mL): <=0.25 μg/mL
- MIC ATB in combination (KPN UFR218, AF2 @ 8 μg/mL): <0.25 µg/mL
- MIC ATB in combination (KPN UFR218, AF3 @ 8 μg/mL): <0.25 µg/mL
- MIC ATB in combination (KPN UFR218, CLA @ 4 μg/mL): 1 µg/mL
- MIC ATB in combination (KPN UFR219, AF2 @ 8 μg/mL): 0.5 µg/mL
- MIC ATB in combination (KPN UFR219, AF3 @ 8 μg/mL): <=0.25 μg/mL
- MIC ATB in combination (KPN UFR219, CLA @ 4 μg/mL): 0.5 µg/mL
- MIC ATB in combination (KPN UFR220, AF2 @ 8 μg/mL): <0.25 µg/mL
- MIC ATB in combination (KPN UFR220, AF3 @ 8 μg/mL): <0.25 µg/mL
- MIC ATB in combination (KPN UFR220, CLA @ 4 μg/mL): >128 µg/mL
- MIC ATB in combination (KPN UFR221, AF2 @ 8 μg/mL): <0.25 µg/mL
- MIC ATB in combination (KPN UFR221, AF3 @ 8 μg/mL): <0.25 µg/mL
- MIC ATB in combination (KPN UFR221, CLA @ 4 μg/mL): 128 µg/mL
- MIC ATB in combination (KPN UFR222, AF2 @ 8 μg/mL): <0.25 µg/mL
- MIC ATB in combination (KPN UFR222, AF3 @ 8 μg/mL): <0.25 µg/mL
- MIC ATB in combination (KPN UFR222, CLA @ 4 μg/mL): >128 µg/mL
- MIC ATB in combination (KPN UFR227O, AF2 @ 8 μg/mL): 8 µg/mL
- MIC ATB in combination (KPN UFR227O, AF3 @ 8 μg/mL): 16 µg/mL
- MIC ATB in combination (KPN UFR227O, CLA @ 4 μg/mL): >128 µg/mL
- MIC (strain KPN 6299, genotype TEM-1, SHV-11, OXA-163): 8 µg/mL
- MIC (strain KPN 110376, compound alone): >128 µg/mL
- MIC (strain KPN 110376, genotype TEM-1, SHV-1, CTX-M-15, OXA-1, OXA-48): >128 µg/mL
- MIC (strain KPN 121206, genotype SHV-1, NDM-1): >128 µg/mL
- MIC (strain KPN 131119, compound alone): >128 µg/mL
- MIC (strain KPN 131119, genotype TEM-1, SHV-11, CTX-M-15, OXA-1, OXA-48): >128 µg/mL
- MIC (strain KPN 140347, genotype CTX-M-15, NDM-1, antibiotic alone): >128 µg/mL
- MIC ATB in combination (strain KPN 140347, with AF2 @ 8 μg/mL): >128 µg/mL
- MIC ATB in combination (strain KPN 140347, with AF3 @ 8 μg/mL): >128 µg/mL
- MIC ATB in combination (strain KPN 140347, with CLA @ 4 μg/mL): >128 µg/mL
- MIC (strain KPN 140513, genotype TEM-1, SHV-11, CTX-M-15, KPC-3): >128 µg/mL
- MIC (strain KPN 160143, genotype TEM-1, SHV-1, CTX-M-15, KPC-2, OXA-1): >128 µg/mL
- MIC (strain KPN 190128, genotype TEM-1, SHV-32, CTX-M-15, OXA-1): >128 µg/mL
- MIC (strain KPN 190270, compound alone): >128 µg/mL
- MIC (strain KPN 190270, genotype TEM-1, SHV-76, CTX-M-15, OXA-1): >128 µg/mL
- MIC (strain KPN 190425, genotype TEM-1, SHV-1, CTX-M-15, OXA-1): >128 µg/mL
- MIC (strain KPN 190551, genotype TEM-1, SHV-1, CTX-M-15, OXA-1): >128 µg/mL
- MIC (strain KPN 200047, genotype TEM-1, SHV-32, CTX-M-15, OXA-1): >128 µg/mL
- MIC (strain KPN 200327, genotype TEM-1, SHV-1, CTX-M-15, OXA-1): 64 µg/mL
- MIC (strain KPN 260251, genotype TEM-1, SHV-11, SHV-12, CTX-M-15, KPC-2): >128 µg/mL
- MIC (strain KPN 260252, genotype TEM-1, SHV-11, KPC-3): >128 µg/mL
- MIC (strain KPN 260376, genotype SHV-1, SHV-49, OXA-1): >128 µg/mL
- MIC (strain KPN 270077, genotype TEM-1, SHV-1, CTX-M-15): >128 µg/mL
- MIC (strain KPN 700603, genotype SHV-18, OXA-2): 16 µg/mL
- MIC (strain KPN ARA, genotype TEM-1, SHV-11, CTX-M-15, OXA-1, OXA-48): >128 µg/mL
- MIC (strain KPN BAA-1898, genotype TEM-1, SHV-11, SHV-12, KPC-2): >128 µg/mL
- MIC (strain KPN LIB, genotype SHV-11, OXA-48): <=0.25 μg/mL
- MIC (strain KPN UFR22_O, genotype TEM-1, SHV-1, OXA-48): <=0.25 μg/mL
- MIC (strain KPN UFR23, genotype TEM-1, SHV-1, OXA-48): <=0.25 μg/mL
- MIC (strain KPN UFR24, genotype TEM-1, SHV-2, SHV-11, OXA-1, OXA-48, OXA-47): >128 µg/mL

Reference: patent publication US20200017495A1, “NOVEL HETEROCYCLIC COMPOUNDS AND THEIR USE IN PREVENTING OR TREATING BACTERIAL INFECTIONS” (priority 2017, published 2020)
